Source: patent EP4789670A1, “PREPARATION CONTAINING URACIL DERIVATIVE” (Shionogi & Co., Ltd, priority 2023, dated 2025)
Values after ≈ are worked out from the molar mass of the structure shown.

Key:
SARS-CoV-2 = experiment: Cytopathic effect (CPE) suppression effect confirmation test using HEK293T/ACE2-TMPRSS2 cells; type: cell-based; conditions: Severe acute respiratory syndrome coronavirus 2, HEK-293T, 72 h, SARS-CoV-2 200-600 TCID50/well, cultured 3 days, CellTiter-Glo 2.0, read-out: 50% SARS-CoV-2 infected cell death inhibitory concentration (EC50)
Experimental: Test Example 1: Cytopathic Effect (CPE) Suppression Effect Confirmation Test Using HEK293T Cells Expressing Human TMPRSS2, ACE2 (HEK293T/ACE2-TMPRSS2 Cells)
The sample to be tested is diluted in advance to an appropriate concentration with DMSO, and a 2- to 5-fold series of serial dilutions is prepared and then dispensed into a 384-well plate.
HEK293T/ACE2-TMPRSS2 cells (GCP-SL222, 5×10^3 cells/well) and SARS-CoV-2 (200-600 TCID50/well) are mixed in a medium (MEM, 2% FBS, penicillin-streptomycin), the mixture is dispensed into the wells in which the sample to be tested has been introduced, and then the cells are cultured for 3 days in a CO2 incubator.
The plate that has been cultured for 3 days is returned to room temperature, subsequently CellTiter-Glo (registered trademark) 2.0 is dispensed into each well, and the plate is mixed using a plate mixer. After standing for a predetermined period of time, the luminescence signal (Lum) is measured using a plate reader.

physchem = type: physicochemical
Experimental: The solid dispersion obtained in Example 4D and the anhydrous crystal alone of the compound represented by Formula (I) (Example 4F-1) were added to various test media to prepare suspensions of 30 to 50 mL. The prepared suspensions were placed in centrifuge tubes and shaken at a shaking speed of 100 rpm or higher. After 60 minutes from the start of shaking, 5 mL of each suspension was collected and immediately filtered through a filter (Chromadisc, 0.45 µm, 25A) to obtain test samples.

## N#CCn1c(N2CC3(C2)CC(F)(F)C3)c(-c2ccc(F)c(Cl)c2)c(=O)n(-c2cncc(Cl)c2)c1=O [Compound (I)]
SARS-CoV-2
  EC50: 1.66 nM

## N#CCn1c(N2CC3(C2)CC(F)(F)C3)c(-c2ccc(F)c(Cl)c2)c(=O)n(-c2cncc(Cl)c2)c1=O [Example 4F-1]
physchem; diluted mcilvaine buffer, pH 4
  solubility at 1 h: 0.64 µg/mL (≈ 1.23 µM)
physchem; jp first dissolution test medium, pH 1.2
  solubility at 1 h: 1.08 µg/mL (≈ 2.07 µM)
physchem; jp second dissolution test medium, pH 6.8
  solubility at 1 h: 0.61 µg/mL (≈ 1.17 µM)
physchem; purified water
  solubility at 1 h: 0.71 µg/mL (≈ 1.36 µM)
